Our source for the IC50 and percent dimer values is article PMC5557545 (PLoS ONE, 2017).

In general, pIC50 refers to the negative decadic logarithm of the IC50, by convention in mol/L.

For test [1], the system named is endonuclease from detergent disrupted viral particles. Details: method as in PMID 7695269. To be noted: cited from earlier work.
In test [2] the test system is influenza virus transcription. To be noted: cited from earlier work.
Test [3] deals with influenza A polymerase acidic protein (PA), full length, N-terminal 3x FLAG tag (influenza A virus H1N1 strain A/PR/8) (UniProt P03433). Nature of the test: AUC.

pIC50: −log10 of the molar value.

Consider `O=C(O)C(=O)CC(=O)c1ccc(-c2ccccc2)cc1` [Compound A, 4-([1,1'-biphenyl]-4-yl)-2,4-dioxobutanoic acid], for which, in test [1], the pIC50 is 5.43. Consider `O=C(O)C(=O)CC(=O)C1(Cc2ccc(Cl)cc2)CCN(Cc2ccc(Cl)cc2)CC1` [Compound B, 4-(1,4-bis(4-chlorobenzyl)piperidin-4-yl)-2,4-dioxobutanoic acid], for which the negative logarithm of the IC50 (pIC50) in test [2] is 5.96. For “influenza A polymerase acidic protein (PA), full length, N-terminal 3x FLAG tag (from UniProt P03433 1-716) (natural protein)”, the percent dimer in test [3] worked out at 10%.
